According to patent US11248016B2, “Glycolipids and pharmaceutical compositions thereof for use in therapy” (THE UNIVERSITY OF NOTTINGHAM, priority 2014, dated 2022):

Assays:
[1] = tested on: A549 lung carcinoma cells; experiment: Cell proliferation, A549 (WST-1 / MTT); assay type: cell-based; settings: for sensitisation of A549 cells to low dose cisplatin: range of doses with range of doses of Cisplatin, FIG. 14; for sensitisation of A549 cells to low dose cisplatin / growth of A549 cells: 96 hrs; for growth of A549 cells: range of doses, dose dependant manner, FIG. 13
Description: Cisplatin™ resistant A549 lung cancer cells were sensitised to treatment with a compound of Formula II in combination with 1 μM Cisplatin™—a complete kill is achieved at higher doses of a compound of Formula II.
Cells were treated with a range of doses of active for either 48 or 96 hrs. Each data point is representaive of at least 4 biological repetitions.
Cells were treated with either 2 μM Cisplatin™ alone, c. 1 μg active alone or c. 1 μg active in combination with 2 μM Cisplatin™. A WST-1 cell proliferation assay was performed 96 hrs after treatment. Experiment represents 4 independent biological repetitions.
A WST-1 cell proliferation assay was performed 72 hrs after treatment. Experiment represents 4 independent biological repetitions.
Cells were treated with either 2 μM or 10 μM Cisplatin™ alone, or 10 μg synthetic molecule Formula II in combination with 2 μM Cisplatin™. A WST-1 cell proliferation assay was performed 72 hrs after treatment. Experiment represents 4 independent biological repetitions. A 5-fold increase in the efficacy of Cisplatin™ is observed when treated in combination with the synthetic Formula II.
Cells were treated with either 2 μM, 5 μM or 10 μM Cisplatin™ alone, 50 μg synthetic acetyl derivative molecule or 30 μg in combination with 2 μM Cisplatin™. A WST-1 cell proliferation assay was performed 72 hrs after treatment. Experiment represents four independent biological repetitions. No effect was detected after treatment with 50 μg synthetic acetyl derivative, however an 8-fold increase in the efficacy of Cisplatin™ is observed when treated in combination with 30 μg synthetic acetyl derivative and […] Cisplatin™.
FIG. 11—Natural molecule plus cisplatin compared to Hippuristanol plus cisplatin. […] The ratio between anti-proliferative activity to chemo sensitizing activity is also equivalent.
FIG. 13—Dose curves of compounds 46, 99 and 123. […] Cells were treated with a range of doses of active for 96 hrs. Each data point is representative of at least 4 biological repetitions and error=s.e.m).
FIG. 14—Cisplatin™ combination experiments—Compounds 46, 99 and 123. […] Cells were treated with a range of doses of active in combination with a range of doses of Cisplatin™ for 96 hrs. Each data point is representative of at least 4 biological repetitions and error=s.e.m).
(§1) Prior to treatment cells were cultured to an appropriate confluency in 96 well tissue culture plates (Fisher). Cells remained either supplemented with fresh media or treated with fresh media containing active or an equivalent volume of DMSO (vehicle control). Where used, Cisplatin™ was diluted to a stock concentration in Dimethylformamide (DMF), then handled as per the manufacturer's instructions. To determine relative cell viability, reagents WST-1 (Roche) or MTT (Sigma) were used as per the manufacturer's instructions and absorbance at 450 nm measured using a Victor plate reader (Perkin Elmer).

[2] = tested on: three Gag isoforms; settings: increasing amounts, dose-response; cited from earlier work
[3] = tested on: NLGN1 5′UTR; experiment: NLGN translation reporter assay, neuroligin 1; assay type: cell-based, human; settings: FIG. 5: 1 μM Hippuristanol, 1.3 μM compound; FIG. 10: compound 46
Description: (§2) The mechanism of action and level of activity of Formula II are consistent with and comparative to a proven translational inhibitor extracted from a rare coral species (Hippuristanol—a proven inhibitor of eIf4A). In this experiment 1 μM of Hippuristanol and 1.3 μM of Formula I was used
(§3) FIG. 10—Compound 46, NLGN Translation reporter assay.
Direct evidence is provided that inhibiting eIF4A represents a new route to treating ASD based on the data presented by Gkogkas et al. Nature 2013, 493:371-7.
Treatment with the compound of Formula II (and compound 46) (FIG. 5 and FIG. 10) selectively decrease the firefly luciferase signal from a reporter construct containing the NLGN1 5′UTR upstream of a firefly luciferase gene. The translation of luciferase reporters downstream of the NLGN1 5′UTR has been proven to be dependent on the activity of the translation initiation complex eIF4F (Gkogkas et al Nature 2013, 493:371-7)—a complex containing the helicase eIF4A. Equivalent treatment had little effect on the signal generated from either a co-transfected renilla luciferase reporter control or cells transfected with an equivalent construct containing the NLGN2 5′UTR upstream of a firefly luciferase gene (FIG. 5 and FIG. 10).
Experiments conducted using Firefly luciferase reporter plasmids containing the 5′ untranslated regions (UTRs) of the genes amyloid precursor protein (APP), thioredoxin (TXN) were conducted with reagents and materials described by Bottley et al, 2010. Experiments conducted using Firefly luciferase reporter plasmids containing the 5′ UTRs of the genes EGFR, BACE1 and Actin were conducted with reagents and materials described by Webb, 2012 (http://etheses.nottingham.ac.uk/2724/). […]
(§4) Cells were transfected using FuGene 6 (Roche) following the manufacturer's instructions. The activities of firefly and renilla luciferase in lysates prepared from transfected cells were measured using a commercially available Luciferase reporter assay system (Promega) and light emission was measured over a 10 sec interval using a TECAN luminometer. […]

[4] = tested on: firefly luciferase translation reporter; experiment: Firefly luciferase translation reporter assay; assay type: cell-based, human; settings: Hippuristanol (1 μM) alone, 4 hrs; FIG. 3c
Text: Graphs represent 4 biological repetitions per treatment—2 independent treatments of a compound of Formula II.
Graphs represent 4 biological repetitions per treatment. […] No difference is observed between Hippuristanol and Hippuristanol plus a compound of Formula II.
The degree of translation inhibition is shown to be equivalent to that of a known inhibitor of translation, hippuristanol (FIGS. 3b and 5). Comparative structured 5′UTR firefly luciferase reporter experiments conducted using either hippuristanol or a compound of Formula II show the inhibition of reporter levels is equivalent.
Cells were transfected using FuGene 6 (Roche) following the manufacturer's instructions. The activities of firefly and renilla luciferase in lysates prepared from transfected cells were measured using a commercially available Luciferase reporter assay system (Promega) and light emission was measured over a 10 sec interval using a TECAN luminometer. For each experiment described, data was obtained from a minimum of at least 3 biological repetitions per treatment.

[5] = tested on: HCMV; settings: cited from earlier work
[6] = tested on: primary canine histocytic sarcoma tumour cells; experiment: Primary canine tumour cell experiments; assay type: cell-based, dog; settings: single dose Cisplatin (10 μM), 6 days
Description: Cells were cultured for 6 days with a single dose treatment of Cisplatin™ (10 μM) or a combination of Cisplatin™ plus a compound of Formula II (active). Images were taken after 6 days treatment and are representative of three independently treated wells. Each image (40× magnification) represents the majority of the well area and is of an equivalent area in each photograph.
Known inhibitors of protein synthesis such as hippuristanol have proven potent anti-cancer properties when used in combination with chemotherapeutic agents such as Cisplatin™ or Doxorubicin™. However hippuristanol is naturally found in coral to is scarce and expensive to obtain, furthermore it is very difficult and expensive to synthesise. […] In particular this combination has a potent effect at slowing proliferation or killing cancer cells. Slow growing and difficult to treat tumour cell types such as A549 lung cancer cells, SH-SY5Y neuroblastoma or SKOV-3 cancer cells are all sensitised by exposure to Formula II to very low doses of Cisplatin™ (FIGS. 4d, 4e, 4f and 7)—a complete kill can be achieved in both A549 and SH-SY5Y cells after a single dose treatment with g quantities of a compound of Formula II in combination with 1 μM or 2.5 μM treatments of Cisplatin™. […]

[7] = tested on: SKOV3 ovarian cancer cells; experiment: Cell proliferation, SKOV3; assay type: cell-based; settings: 96 hours, Cisplatin alone; FIG. 4f
Description: Growth of SKOV3 cell lines were slowed by the treatment with a compound of Formula II at higher doses. Experiment represents 6 biological repetitions, Error=S.E.M.
Cisplatin™ resistant SKOV-3 ovarian cancer cells were sensitised to treatment with a compound of Formula II in combination with 2.5 μM Cisplatin™ (p=0.003) (right hand bar in the figure), no effect is observed from treatment with equivalent levels of a compound of Formula II alone (left hand bar in the figure) or Cisplatin™ alone.
as §1

[8] = tested on: NLGN2 5′UTR; experiment: NLGN translation reporter assay, neuroligin 2; assay type: cell-based, human; settings: equivalent treatment; FIG. 5 and FIG. 10
Description: as §2, §3
Treatment with the compound of Formula II (and compound 46) (FIG. 5 and FIG. 10) selectively decrease the firefly luciferase signal from a reporter construct containing the NLGN1 5′UTR upstream of a firefly luciferase gene. The translation of luciferase reporters downstream of the NLGN1 5′UTR has been proven to be dependent on the activity of the translation initiation complex eIF4F (Gkogkas et al Nature 2013, 493:371-7)—a complex containing the helicase eIF4A. […]
as §4

In the case of `C[C@H]1C[C@@]2(O[C@H]3C[C@H]4[C@@H]5CC[C@H]6C[C@H](O)CC[C@]6(C)[C@H]5[C@@H](O)C[C@]4(C)[C@H]3[C@@]2(C)O)OC1(C)C` [Hippuristanol, reference compound], the “anti-proliferative activity on A549 cells” value ([1]; alone, FIG. 11) is listed as “anti-proliferative”, the “translation of the three Gag isoforms” value [2] is listed as “inhibits the translation of the three Gag isoforms” and the “translation of NLGN1 5′UTR firefly luciferase reporter relative to neuroligin 2” value [3] is listed as “selective inhibition”. The “inhibition of translation reporter” value [4] was “significant inhibition”.

With `CC/C=C\C/C=C\C/C=C\CCCCCCCC(=O)OC[C@H](COC1OC(COC(C)=O)C(OC(C)=O)C(OC(C)=O)C1OC(C)=O)OC(=O)CCCCCCC/C=C\C/C=C\C/C=C\CC` (some centres unmarked) [acetyl derivative of Formula II] the “increase in the efficacy of Cisplatin” value ([1]; 30 μg plus 2 μM Cisplatin, WST-1, 72 hrs, FIG. 9c) was 8 fold and the “effect on A549 cells, compound alone” value ([1]; 50 μg alone, WST-1, 72 hrs, FIG. 9c) was “No effect”.

In the case of `CC(/C=C/C(C)=C/[C@@H]1Cc2nc(cs2)[C@@H](C)C[C@@H](N)CC(=O)O[C@@H](C)C/C(C)=C/C=C\C(=O)O1)=C\CN(C)C` [Pateamine A], the “replication of HCMV” value [5] is listed as “inhibits the replication of HCMV”.

With `CC/C=C\C/C=C\C/C=C\CCCCCCCC(=O)OCC(COC(=O)CCCCCCC/C=C\C/C=C\C/C=C\CC)CO[C@@H]1O[C@H](CO)[C@@H](O)[C@H](O)[C@H]1O` [Compound 99] the “sensitisation of A549 cells to low dose cisplatin” value (“sensitisation of A549 cells” below) [1] was “sensitizes” and the “growth of A549 cells” value [1] was “inhibits the growth”.

With `N.N.[Cl][Pt][Cl]` [Cisplatin, cis-diamminedichloroplatinum(II), reference compound] the “canine tumour cells after Cisplatin only” value [6] was “many cancer cells remain” and the “effect on SKOV-3 cells, Cisplatin alone” value [7] was “no effect”.

For `CC/C=C\C/C=C\C/C=C\CCCCCCCC(=O)OCC(COC(=O)CCCCCCC/C=C\C/C=C\C/C=C\CC)CO[C@@H]1O[C@H](CO)[C@H](O)[C@H](O)[C@H]1O` [Compound 46], the “sensitisation of A549 cells” value [1] was “sensitizes”, the “growth of A549 cells” value [1] was “inhibits the growth” and the “signal of NLGN2 5′UTR firefly luciferase reporter” value [8] was “little effect”. The “translation of NLGN1 5′UTR firefly luciferase reporter relative to neuroligin 2” value [3] was “selectively inhibits the translation”.

With `CC/C=C\C/C=C\C/C=C\CCCCCCCC(=O)OC[C@H](CO[C@H]1O[C@H](CO)[C@@H](O)[C@H](O)[C@H]1O)OC(=O)CCCCCCC/C=C\C/C=C\C/C=C\CC` [Compound 123] the “sensitisation of A549 cells” value [1] was “sensitizes” and the “growth of A549 cells” value [1] was “inhibits the growth”.
